Measured values published in patent US4918062A, “Pharmaceutical compositions for the treatment of cerebral psycho-organic syndromes” (Riace Establishment, priority 1987, dated 1990).

Tests used:
acute toxicity in mice = settings: mouse, in vivo
From the text: (§1) As far as acute toxicity is concerned, the following data are obtained: […]

acute toxicity in rats = settings: rat, in vivo
From the text: as §1

[1] = acute toxicity in rabbits; settings: rabbit, in vivo
From the text: as §1

learning and memory [2] = experiment: electroshock test as described by Esseman (learning and memory); assay type: in vivo; settings: male mice, 100 mg/kg i.p.
Protocol: (§2) The GPE administered i.p. to 20 male mice at the dose of 100 mg/kg subjected to the electroshock test as described by Esseman in Pharmacol. Res. comm.

learning and memory [3] = experiment: pole-climbing test as described by Cook and Weindley (learning and memory); assay type: in vivo; settings: male rats, 100 mg/kg i.p.
learning and memory [4] = experiment: learning and memory tests in laboratory animals (summary statement); assay type: in vivo
Protocol: as §2

[5] = tested on: senile cerebral alteration, of both involutive and cerebro-vascular insufficiency origin; experiment: clinical tests in the treatment of senile cerebral alteration (overall clinical evaluation); assay type: in vivo, man
Protocol: 20 patients (10 male and 10 female) 59 to 76 years old were treated; the overall clinical evaluation, taking into account the improvement of the neurophysiological and neurological exams carried out, of the psychometric tests and of the used neurological scale (De Renzi E., Nichelli P.: Verbal and non-verbal short-term memory impairment following hemispheric damage, Cortex, 11, 341-354, 1975; Bisiach E. et. al.: Neurologia Clinica, Ricerche di psicologia, Ed. F. Angeli, Milano, 1977; Cafarra P. et al.: Neuropsychological testing during a transient global amnesia episode and its follow-up, Acta Neurol. Scand.

[6] = oral route, read-out: oral dose that did not cause either death or any symptomatology
[7] = case 1, cerebral vasculopathy with mental decline
[8] = overall clinical evaluation, 20 patients, 59 to 76 years old

In the case of `NCCOP(=O)(O)OC[C@H](O)CO` [GPE, L-α-glycerylphosphorylethanolamine], the LD50 (acute toxicity in mice; im, intramuscular route) is reported as over 1500 mg/kg, the NOAEL (acute toxicity in mice; [6]) is reported as at least 3000 mg/kg and the LD50 (acute toxicity in rats; im, intramuscular route) is reported as over 1500 mg/kg. It also gave an NOAEL (acute toxicity in rats; [6]) of at least 3000 mg/kg, an LD50 ([1]; im, intramuscular route) of over 1000 mg/kg and an NOAEL [1, 6] of at least 3000 mg/kg. The “ability to activate learning and memory in comparison to the untreated animals” value (learning and memory [2]) was “significantly shown the ability to activate learning and memory”, the “ability to activate learning and memory in comparison to the untreated animals” value (learning and memory [3]) was “significantly shown the ability to activate learning and memory” and the “response to the learning and memory tests” value (learning and memory [4]) was “significantly improve the response to the learning and memory tests”. The “tolerability (overall)” value ([5]; 20 patients, 59 to 76 years old) was “always excellent”, the “Evaluation: Activity” value [5, 7] was “good” and the “Evaluation: Tolerability” value [5, 7] was “very good”. For the same molecule, the “Evaluation: Activity” value ([5]; case 2, mental decline in cerebral vasculopathic) was “insufficient”, the “Evaluation: Activity” value ([5]; case 3, cerebral vasculopathy with mental decline) was “very good” and the “Evaluation: Activity” value ([5]; case 4, mental involution with serious cerebral atrophy) was “very good”. For the same molecule, the “Evaluation: Activity” value ([5]; case 5, Alzheimer disease) was “moderate”, the “Evaluation: Activity” value ([5]; case 6, cerebral atrophy with extrapiramidal syndrome and decline) was “moderate” and the “Evaluation: Activity” value ([5]; case 8, multifocal dementia) was “good”. For the same molecule, the “Evaluation: Activity” value ([5]; case 9, presenile Alzheimer disease) was “good”, the “Evaluation: Activity” value ([5]; case 10, multifocal dementia with incipient cerebral) was “very good” and the “Evaluation: Activity” value ([5]; case 11, cerebral vasculopathy with mental decline) was “very good”. For the same molecule, the “Evaluation: Activity” value ([5]; case 12, Alzheimer disease with cerebral atrophy) was “good”, the “Evaluation: Activity” value ([5]; case 13, cerebral vasculopathy with mental decline) was “good” and the “Evaluation: Activity” value ([5]; case 14, vasculopathy prevailing in the vertebro-basilar) was “moderate”. For the same molecule, the “Evaluation: Activity” value ([5]; case 15, cerebral vasculopathy with mental decline) was “moderate”, the “Evaluation: Activity” value ([5]; case 16, Alzheimer disease) was “good” and the “Evaluation: Activity” value ([5]; case 17, Alzheimer disease with initial cerebral atrophy) was “very good”. For the same molecule, the “Evaluation: Activity” value ([5]; case 18, Alzheimer disease) was “very good”, the “Evaluation: Activity” value ([5]; case 19, cerebral vasculopathy with cerebral atrophy) was “good” and the “Evaluation: Activity” value ([5]; case 20, multifocal dementia) was “good”. For the same molecule, the “influence on neurophysiological parameters, psychometric tests and neurologic scales” value ([5]; man) was “ability to influence in a likewise significant way the neurophysiological parameters, the psychometric tests and the used neurologic scales”, the “cases with significantly positive therapeutic effect” value [5, 8] was 19 cases and the “treatments considered to be insufficient” value [5, 8] was “only one”. The “pharmacological activity in clinical tests” value ([5]; senile cerebral alteration and related symptomatology) was “confirmed in clinical tests”.
